From US11883526B2 (priority 2019, dated 2024)
Read-outs that look alike come from different tables or passages of the source. Marks after values point to notes of the source that are not given here.

Assays:
[1] = Source text: This example provides an LC-MS/MS method for the determination of ketamine and norketamine in sodium heparin human plasma using ketamine-d4 and norketamine-d4 as the respective internal standards (IS).
[2] = system: female Sprague-Dawley rats; assay: Single dose neurotoxicity study: mortality, clinical observations, body weight; type: in vivo, rat
Method: The injection volume was 5 mL/kg.
Body weight and body weight gain were measured daily.

[3] = Pharmacokinetics of intranasal esketamine in healthy subjects (Example 9); conditions: for AUClast / AUC∞ / t1/2 / Cmax / Metabolite/Parent Ratio AUClast / Metabolite/Parent Ratio Cmax / Metabolite/Parent Ratio AUC∞: mean; for tmax: median; for Metabolite/Parent Ratio AUClast / Metabolite/Parent Ratio Cmax / Metabolite/Parent Ratio AUC∞: noresketamine/esketamine
Method: This was an open-label, single-center study. The subjects were healthy Caucasian men and women, 20 to 55 years of age, inclusive. […] The solution consisted of:
Blood samples (4 mL each) for determination of esketamine and noresketamine plasma concentrations were collected into the appropriate collection tube (e.g., Vacutainer®) at timepoints 0.00, 0.12, 0.20, 0.37, 0.53, 0.67, 0.83, 1.00, 1.25, 1.50, 2.00, 3.00, 4.00, 6.00, 9.00, 12.00, 18.00, and 24.00 h. The total amount of blood to be drawn for clinical laboratory tests and PK evaluations is approximately 327 mL.
Plasma samples were analyzed for esketamine and noresketamine concentrations using the validated, specific and sensitive liquid chromatography coupled to tandem mass spectrometry (LC-MS/MS) achiral method of Example 8.
Serial PK blood samples (4 mL each) were collected for a 24-hour period from each subject (Periods 1, 2, and 3). […] Statistical Methods 1.6.4.1. Sample Size
The following key parameters of esketamine and noresketamine in plasma were calculated using noncompartmental methods and actual sampling times: Cmax, tmax, AUClast, AUC∞, t1/2,λ, and λz.

MDD/TRD subjects = conditions: quetiapine 52-week safety study; Symbyax over 76 weeks; cited from earlier work
[4] = single dose study, (+)MK-801 maleate 1 mg/kg subcutaneous
[5] = noresketamine after esketamine 28 mg
[6] = noresketamine after esketamine 56 mg
[7] = noresketamine after esketamine 56 mg, n = 13
[8] = noresketamine after esketamine 84 mg
[9] = noresketamine after esketamine 84 mg, n = 12

## NC1(c2ccccc2Cl)CCCCC1=O (centres unmarked) [Norketamine]
[1]; freeze (−20° C.)/thaw (ice-water bath)
  QC sample freeze/thaw stability: 3 freeze (−20° C.)/thaw (ice-water bath) cycles
[1]; freeze (−20° C.)/thaw (room temperature)
  QC sample freeze/thaw stability: 3 freeze (−20° C.)/thaw (room temperature) cycles
[1]; human plasma QC sample at −20° C.
  QC sample long-term storage stability: 1552 days at −20 °C
[1]; human plasma QC sample, room temperature
  QC sample bench-top stability: 68.5 hours at room temp
[1]; ketamine/norketamine spike solutions at −20° C.
  Stock solution stability (spike solutions): 610 days at −20 °C for ketamine/norketamine spike solutions
[1]; room temperature
  Processed sample stability: 146.5 hours at room temperature
[1]; room temperature and ice-water bath (0-4° C.)
  Whole Blood Stability: 120 minutes at room temperature and in an ice-water bath (0-4° C.)
[1]; stock solutions at room temperature under white light
  Stock solution stability: 6 h
[1]; stock solutions at −20° C.
  Stock solution stability: 15100 h

## C[C@]12N[C@H](Cc3ccccc31)c1ccccc12.O=C(O)/C=C\C(=O)O [Positive control]
[2]; [4]
  Clinical observation incidence: Ataxia: 27/30 ***
  Clinical observation incidence: Catalepsy: 15/30 ***
  Clinical observation incidence: Chromodacryorrhea: 24/30 ***
  Clinical observation incidence: Decreased general activity: 30/30 ***
  Clinical observation incidence: Decubitus: 30/30 ***
  Clinical observation incidence: Increased general activity: 4/30
  Clinical observation incidence: Narrowed palpebral fissure: 4/30
  Clinical observation incidence: Piloerection: 8/30**
  Clinical observation incidence: Salivation (out of normal): 17/30 ***
  Clinical observation incidence: bradypnoea: 12/30 ***

## N[C@]1(c2ccccc2Cl)CCCCC1=O [noresketamine]
[3]; across 28, 56 and 84 mg
  mean ratio of noresketamine to esketamine, AUClast: 3.62 to 4.32
  mean ratio of noresketamine to esketamine, AUC∞: 3.80 to 4.46
  mean ratio of noresketamine to esketamine, Cmax: 1.96 to 2.55
  mean t1/2: 7.48 to 7.74 h
[3]; across the 3 treatment groups
  variability of AUC (AUClast and AUC∞): 17.0% to 21.3
  variability of Cmax (percent coefficient of variation): 25.8% to 33.7
[3]; healthy subjects, across 28, 56 and 84 mg intranasal regimens
  median tmax: 1.25 to 1.5 h
[3]; [5]
  AUClast: 454 ng·h/mL
  AUC∞: 508 ng·h/mL
  t1/2: 7.74 h
  tmax: 1.25 h
[3]; [6]
  AUClast: 851 ng·h/mL
  tmax: 1.50 h
[3]; [7]
  AUC∞: 924^c h*ng/mL
  t1/2: 7.71^c h
[3]; [8]
  AUClast: 1287 ng·h/mL
  tmax: 1.50 h
[3]; [9]
  AUC∞: 1392^b h*ng/mL
  t1/2: 7.48^b h
[3]; noresketamine in plasma after intranasal esketamine 28 mg (Treatment A)
  Cmax: 92.8 ng/mL
[3]; noresketamine in plasma after intranasal esketamine 56 mg (Treatment B)
  Cmax: 154 ng/mL
[3]; noresketamine in plasma after intranasal esketamine 84 mg (Treatment C)
  Cmax: 241 ng/mL
[3]; esketamine 28 mg
  Metabolite/Parent Ratio AUClast: 3.62
  Metabolite/Parent Ratio Cmax: 1.96
[3]; esketamine 28 mg, n = 12
  Metabolite/Parent Ratio AUC∞: 3.80^b
[3]; esketamine 56 mg
  Metabolite/Parent Ratio AUClast: 4.07
  Metabolite/Parent Ratio Cmax: 2.28
[3]; esketamine 56 mg, n = 12
  Metabolite/Parent Ratio AUC∞: 4.22^b
[3]; esketamine 84 mg
  Metabolite/Parent Ratio AUClast: 4.32
  Metabolite/Parent Ratio Cmax: 2.55
[3]; esketamine 84 mg, n = 11
  Metabolite/Parent Ratio AUC∞: 4.46^d

## OCCOCCN1CCN(C2=Nc3ccccc3Sc3ccccc32)CC1 [quetiapine]
MDD/TRD subjects
  rate of discontinuation due to adverse events in long-term study in MDD/TRD subjects: 23.7%

## (+)MK-801 maleate [reference compound]
[2]; 1 mg/kg sc, first 48 hours after treatment
  body weight loss: 13-14%
[2]; single sc dose 1 mg/kg, single and repeated dose studies
  mortality: No mortality
